Source: the supplement of paper PMC8612539
Values after ≈ are worked out from the molar mass of the structure shown.

Tests used:
Enterococcus spp. = assay: minimum inhibitory concentration (MIC)
Procedure: (§1)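 Broth microdilution MIC (Sensititre BOPO7F bovine plate, CLSI methods) of 19 antimicrobials against field isolates of P. multocida, M. haemolytica, H. somni (deep nasopharyngeal swabs) and E. coli, Enterococcus spp. (rectal swabs) from weaned dairy heifers. Incubation 16-24 h at 35 C. MIC is the lowest concentration preventing visible growth. Values with <= or > lie at the tested range limits. Trimethoprim-sulfamethoxazole is given as the trimethoprim component of a 1:19 mixture.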

Mannheimia haemolytica = assay: minimum inhibitory concentration (MIC)
Procedure: as §1

CCC[C@@H]1C[C@@H](C(=O)N[C@@H]([C@H]2O[C@H](SC)[C@H](O)[C@@H](O)[C@H]2O)[C@H](C)Cl)N(C)C1 [Clindamycin]
minimum inhibitory concentration [µg/mL]
Conditions	Enterococcus spp.	Mannheimia haemolytica
isolate (source animal id): 2	≤ 0.25	–
isolate (source animal id): 8	–	16 (≈ 37.6 µM)
isolate (source animal id): 13	–	16 (≈ 37.6 µM)
isolate (source animal id): 18	–	16 (≈ 37.6 µM)
isolate (source animal id): 21	–	16 (≈ 37.6 µM)
isolate (source animal id): 25	–	> 16
isolate (source animal id): 27	–	16 (≈ 37.6 µM)
isolate (source animal id): 28	–	16 (≈ 37.6 µM)
isolate (source animal id): 30	–	16 (≈ 37.6 µM)
isolate (source animal id): 31	–	16 (≈ 37.6 µM)
isolate (source animal id): 32	–	8 (≈ 18.8 µM)
isolate (source animal id): 34	–	16 (≈ 37.6 µM)
isolate (source animal id): 35	> 16	–
isolate (source animal id): 36	–	16 (≈ 37.6 µM)
isolate (source animal id): 37	–	16 (≈ 37.6 µM)
isolate (source animal id): 40	–	8 (≈ 18.8 µM)
isolate (source animal id): 41	–	16 (≈ 37.6 µM)
isolate (source animal id): 42	16 (≈ 37.6 µM)	–
isolate (source animal id): 43	–	16 (≈ 37.6 µM)
isolate (source animal id): 44	16 (≈ 37.6 µM)	–
isolate (source animal id): 46	–	16 (≈ 37.6 µM)
isolate (source animal id): 49	–	16 (≈ 37.6 µM)
isolate (source animal id): 50	–	16 (≈ 37.6 µM)
isolate (source animal id): 51	–	16 (≈ 37.6 µM)
isolate (source animal id): 52	–	16 (≈ 37.6 µM)
isolate (source animal id): 53	–	8 (≈ 18.8 µM)
isolate (source animal id): 55	–	8 (≈ 18.8 µM)
isolate (source animal id): 56	–	16 (≈ 37.6 µM)
isolate (source animal id): 57	–	> 16
isolate (source animal id): 79	16 (≈ 37.6 µM)	–
isolate (source animal id): 88	≤ 0.25	–
isolate (source animal id): 91	≤ 0.25	–
isolate (source animal id): 92	2 (≈ 4.71 µM)	–
isolate (source animal id): 100	–	16 (≈ 37.6 µM)
isolate (source animal id): 103	–	16 (≈ 37.6 µM)
isolate (source animal id): 107	–	16 (≈ 37.6 µM)
isolate (source animal id): 108	–	16 (≈ 37.6 µM)
isolate (source animal id): 111	≤ 0.25	–
isolate (source animal id): 112	–	> 16
isolate (source animal id): 113	–	> 16
isolate (source animal id): 121	–	> 16
isolate (source animal id): 122	> 16	16 (≈ 37.6 µM)
isolate (source animal id): 123	8 (≈ 18.8 µM)	> 16
isolate (source animal id): 126	–	> 16
isolate (source animal id): 133	≤ 0.25	> 16
isolate (source animal id): 135	–	> 16
isolate (source animal id): 138	–	> 16
isolate (source animal id): 141	–	> 16
isolate (source animal id): 142	–	> 16
isolate (source animal id): 145	–	8 (≈ 18.8 µM)
isolate (source animal id): 149	–	8 (≈ 18.8 µM)
isolate (source animal id): 151	–	8 (≈ 18.8 µM)
isolate (source animal id): 152	–	16 (≈ 37.6 µM)
isolate (source animal id): 154	–	8 (≈ 18.8 µM)
isolate (source animal id): 158	> 16	–
isolate (source animal id): 159	–	> 16
isolate (source animal id): 162	–	> 16
isolate (source animal id): 168	≤ 0.25	–
isolate (source animal id): 169	≤ 0.25	–
isolate (source animal id): 170	–	16 (≈ 37.6 µM)
isolate (source animal id): 171	16 (≈ 37.6 µM)	8 (≈ 18.8 µM)
isolate (source animal id): 172	–	16 (≈ 37.6 µM)
isolate (source animal id): 173	–	16 (≈ 37.6 µM)
isolate (source animal id): 175	> 16	–
isolate (source animal id): 177	16 (≈ 37.6 µM)	–
isolate (source animal id): 179	–	8 (≈ 18.8 µM)
isolate (source animal id): 180	–	16 (≈ 37.6 µM)
isolate (source animal id): 181	≤ 0.25	–
isolate (source animal id): 182	≤ 0.25	–
isolate (source animal id): 183	16 (≈ 37.6 µM)	16 (≈ 37.6 µM)
isolate (source animal id): 186	–	8 (≈ 18.8 µM)
isolate (source animal id): 187	≤ 0.25	16 (≈ 37.6 µM)
isolate (source animal id): 188	–	16 (≈ 37.6 µM)
isolate (source animal id): 190	≤ 0.25	16 (≈ 37.6 µM)
isolate (source animal id): 191	–	16 (≈ 37.6 µM)
isolate (source animal id): 192	–	8 (≈ 18.8 µM)
isolate (source animal id): 194	16 (≈ 37.6 µM)	–
isolate (source animal id): 195	≤ 0.25	–
isolate (source animal id): 197	0.5 (≈ 1.18 µM)	–
isolate (source animal id): 201	–	16 (≈ 37.6 µM)
isolate (source animal id): 202	–	8 (≈ 18.8 µM)
isolate (source animal id): 209	–	16 (≈ 37.6 µM)
isolate (source animal id): 211	≤ 0.25	16 (≈ 37.6 µM)
isolate (source animal id): 214	2 (≈ 4.71 µM)	–
isolate (source animal id): 220	–	16 (≈ 37.6 µM)
isolate (source animal id): 221	–	16 (≈ 37.6 µM)
isolate (source animal id): 222	16 (≈ 37.6 µM)	–
isolate (source animal id): 223	8 (≈ 18.8 µM)	8 (≈ 18.8 µM)
isolate (source animal id): 228	2 (≈ 4.71 µM)	–
isolate (source animal id): 230	2 (≈ 4.71 µM)	–
isolate (source animal id): 233	–	16 (≈ 37.6 µM)
isolate (source animal id): 235	> 16	–
isolate (source animal id): 236	8 (≈ 18.8 µM)	–
isolate (source animal id): 237	–	16 (≈ 37.6 µM)
isolate (source animal id): 239	≤ 0.25	–
isolate (source animal id): 241	> 16	16 (≈ 37.6 µM)
isolate (source animal id): 244	16 (≈ 37.6 µM)	–
isolate (source animal id): 246	16 (≈ 37.6 µM)	–
isolate (source animal id): 247	> 16	–
isolate (source animal id): 250	16 (≈ 37.6 µM)	–
isolate (source animal id): 252	> 16	16 (≈ 37.6 µM)
isolate (source animal id): 253	–	16 (≈ 37.6 µM)
isolate (source animal id): 259	–	> 16
isolate (source animal id): 260	–	16 (≈ 37.6 µM)
isolate (source animal id): 262	–	16 (≈ 37.6 µM)
isolate (source animal id): 268	> 16	–
isolate (source animal id): 282	4 (≈ 9.41 µM)	> 16
isolate (source animal id): 285	> 16	–
isolate (source animal id): 287	–	> 16
isolate (source animal id): 288	–	16 (≈ 37.6 µM)
isolate (source animal id): 289	8 (≈ 18.8 µM)	–
isolate (source animal id): 290	16 (≈ 37.6 µM)	–
isolate (source animal id): 291	–	16 (≈ 37.6 µM)
isolate (source animal id): 293	–	> 16
isolate (source animal id): 296	16 (≈ 37.6 µM)	–
isolate (source animal id): 298	≤ 0.25	> 16
isolate (source animal id): 299	–	> 16
isolate (source animal id): 300	–	8 (≈ 18.8 µM)
isolate (source animal id): 301	0.5 (≈ 1.18 µM)	–
isolate (source animal id): 302	–	> 16
isolate (source animal id): 304	–	> 16
isolate (source animal id): 306	–	16 (≈ 37.6 µM)
isolate (source animal id): 308	–	16 (≈ 37.6 µM)
isolate (source animal id): 309	–	16 (≈ 37.6 µM)
isolate (source animal id): 310	> 16	–
isolate (source animal id): 313	–	16 (≈ 37.6 µM)
isolate (source animal id): 318	–	8 (≈ 18.8 µM)
isolate (source animal id): 320	4 (≈ 9.41 µM)	16 (≈ 37.6 µM)
isolate (source animal id): 321	–	16 (≈ 37.6 µM)
isolate (source animal id): 323	–	> 16
isolate (source animal id): 324	–	16 (≈ 37.6 µM)
isolate (source animal id): 326	–	> 16
isolate (source animal id): 328	–	16 (≈ 37.6 µM)
isolate (source animal id): 329	–	16 (≈ 37.6 µM)
isolate (source animal id): 331	8 (≈ 18.8 µM)	–
isolate (source animal id): 333	16 (≈ 37.6 µM)	16 (≈ 37.6 µM)
isolate (source animal id): 335	–	16 (≈ 37.6 µM)
isolate (source animal id): 338	–	16 (≈ 37.6 µM)
isolate (source animal id): 341	> 16	–
